{
  "source": "patent US11998600B2",
  "about": "“Enhancing the therapeutic activity of an immune checkpoint inhibitor” (MaineHealth, priority 2015, dated 2024)",
  "key": {"[1]": {"system": "endothelial cells in which YAP was knocked down", "test": "Cell proliferation assay, endothelial cells transduced with YAP specific shRNA", "format": "cell-based, human", "settings": "soluble peptide (FIG. 8H) or VEGF 50 ng/ml (FIG. 8I)", "protocol": "(§1) HUVECs (WT, shYAP1 or control transfected) or HRMVECs were plated at 2,000 cells per well with complete EGM-2 media containing 2.0% FBS in the absence or presence of P-1, P-2 or P-C (100 ng/ml) and allowed to grow for 24 hours. Cell growth was monitored using a BrdU or MMT assay kits according to manufacturer's instructions. All assays were completed at least three times in triplicate wells.\n(§2) Raw cells were transfected with 1 μg of HuSH shRNA plasmids for collagen type I, alpha 2 using Amaxa cell line nucleofector kit V (program #T024). Constructs expressing 21-nucleotide short hairpin RNAs (shRNA) targeting human YAP (shYAP) or non-targeting control (shNT, Sigma-Aldrich, SHC002) were used. Humantargeting shYAP1 lentiviral shRNA was obtained from the Thermo Scientific RNAi consortium (TRCN0000107625). Constructs were packaged into lentivirus, pseudotyped with the vesicular stomatitis virus glycoprotein. Transduction was performed by incubating cells with lentivirus, and stably transduced cells were subsequently used for studies. All cell lines were verified by morphology and mouse and human YAP-specific PCR. […] Endothelial cells were certified mycoplasma-negative by PCR (Lonza), and primary cell cultures were used within the indicated passage numbers. Cells were transduced and selected using puromycin.\n(§3) Endothelial cells with YAP specific or non-specific shRNAs were transduced."}, "[2]": {"system": "P38MAPK", "test": "Phosphorylated P38MAPK in CAM tissue lysates, Western blot", "format": "in vivo, chick", "settings": "Image-J quantification, FIG. 6B", "protocol": "The chick chorioallantoic membrane (CAM) assays were carried out with some modifications (19). For all experiments CAMs of 10-day-old chick embryos obtained from Charles River (North Franklin, CT) were separated from the shell membrane. Filter discs either non-treated (inflammation assays) pretreated (angiogenesis assays) with cortisone acetate (3.0 mg/ml) containing RPMI only or FGF-2 (40 ng). CAMs were either non-treated or treated topically with Mab XL313, XL166 or a non-specific control antibody (10 μg/embryo every 24 h for three consecutive treatments). […] At the end of the incubation period the embryos were sacrificed and the CAM tissues were analyzed. Angiogenesis was quantified by counting the number of angiogenic branching blood vessels within the area of the filter disc. The angiogenic index was determined by subtracting the mean number of blood vessel branch points from untreated CAMs from each experimental condition. Eight to twelve embryos were used per condition and experiments were repeated at least three times.\nWhole cell and CAM tissue lysates were collected in RIPA buffer supplemented with 1× protease inhibitor and 1× phosphatase inhibitor and were run on polyacrylamide gels using denaturing conditions. […] Western blot bands were quantified using Image J software based on pixel intensity."}, "[3]": {"system": "YAP", "test": "Nuclear YAP in HUVECs attached to collagen peptides", "format": "cell-based, human", "protocol": "Whole cell and CAM tissue lysates were collected in RIPA buffer supplemented with 1× protease inhibitor and 1× phosphatase inhibitor and were run on polyacrylamide gels using denaturing conditions. Prior to loading the gels, 6× sample buffer was added to each of the lysates (final concentration 1×) and boiled for five minutes. Twenty to 50 μg of total protein were loaded into each lane. […] Gels were run at 60 volts (v) until the dye front passed through the stacking gel, and then the voltage was increased to 100V for the remainder of the separation. Precision Plus protein standards (Bio-Rad) were used to visualize migration. Protein was transferred to nitrocellulose membranes using a wet tank system and blocked for 1 h using 10% non-fat dried milk in tris-buffered saline with 0.01% Tween-20 (TBS-T). […] Membranes were washed 3 times in TBS-T for five minutes. Blots were then incubated with HRP conjugated secondary antibodies (1:15000) in 1% non-fat milk in TBS-T for 1 h. Membranes were washed a second time as indicated above and exposed to chemiluminecent substrate for three minutes prior to exposure to autoradiography film in a dark room. Western blot bands were quantified using Image J software based on pixel intensity."}, "[4]": {"system": "endothelial cells (HUVECs)", "test": "Actin stress fiber formation in HUVECs attached to collagen peptides (F-actin stain)", "format": "cell-based, human", "settings": "FIG. 7G", "protocol": "CAMs examined for accumulation of granulation tissue were harvested, fixed in 4% PFA and paraffin embedded and sectioned (4 μm) and stained with Giemsa. CAM tissues analyzed via immunofluorescence were harvested, embedded with OCT, snap frozen and sectioned ([…]). Frozen sections were fixed in 50% methanol/50% acetone, air dried and blocked with 2.5% BSA for 1 h at 37° C. For expression of the XL313 and XL166 epitopes as well as monocyte/macrophages, FGF-2 stimulated CAM tissues were stained with Mabs XL313, XL166 (50 μg/ml) or KUL1 (1:250) and then incubated with Alexa-488 labeled secondary antibodies (1:2000 dilution). […] Using a similar strategy, sections of RGD peptide-treated CAM tissues were analyzed for phosphorylated-P38MAPK in angiogenic vessels by co-incubation of anti-phospho-P38MAPK (1:50) and anti-vWf (1:500) antibodies. […]\nBecause both RGD containing peptides bind αvβ3 coupled with the differential effect of these peptides on angiogenesis and inflammation, it was determined whether the RGD peptides differentially altered αvβ3-mediated signaling. […] Therefore, the differential phosphorylation of these protein kinases following the early mechanical-mediated interactions with the RGD containing collagen peptides was assessed. […]"}, "[5]": {"system": "endothelial cells transduced with non-specific shRNA", "test": "Cell proliferation assay, endothelial cells transduced with non-specific shRNA", "format": "cell-based, human", "settings": "soluble peptide; FIG. 8G", "protocol": "as §1, §2, §3"}, "[6]": {"system": "HRMVEC", "test": "Cell proliferation assay, HRMVEC", "format": "cell-based, human", "settings": "peptide 100 ng/ml, 24 hours; FIG. 8D", "protocol": "as §1"}},
  "data": [
    {"sequence": "QGPRGDKGE [Mab P-2]", "values": [
      {"measurement": "endothelial cell growth in YAP knock down cells", "setting": "[1]", "result": "failed to induce growth"},
      {"measurement": "increase in phosphorylation of P38MAPK as compared to controls", "setting": "[2]", "result": 4, "unit": "fold"},
      {"measurement": "nuclear localized YAP (immunofluorescence), P-2 as compared to P-1", "setting": "[3]; 15 minutes after binding, no growth factor, FIG. 8A", "result": "enhanced level of nuclear localized YAP"},
      {"measurement": "increase of nuclear YAP levels (Western blot), P-2 as compared to P-1", "setting": "[3]; nuclear fractions of HUVEC lysates, FIG. 8B", "result": "approximately 2 fold"},
      {"measurement": "actin stress fiber formation, P-2 as compared to P-1", "setting": "[4]", "result": "accelerated actin stress fiber formation"},
      {"measurement": "endothelial cell growth in control transduced cells", "setting": "[5]", "result": "enhanced growth"},
      {"measurement": "HRMVEC growth with soluble peptide", "setting": "[6]", "result": "significantly (P<0.05) enhanced endothelial cell growth"}
    ]}
  ]
}
